The values that follow come from US20260061027A1 (NeuroTher, LLC, priority 2024, published 2026).

This series can be described thus: In vitro metabolic stability of hepatocytes. Conditions: Mouse hepatocytes, 0.5 ×10^6 cells/mL.

On to `O=c1ccc2ccc(O)cc2o1` [7-Hydroxycoumarin], for which the “T1/2” value is 3.0 min.
